Data as given in the supplement of paper PMC10307832.

What was measured:
Assay in all cases: relative viability (nuclei count vs DMSO), 5 days (fraction); higher = more cells survive
Carboplatin + Foretinib = compound: C1CC(C1)(C(=O)O)C(=O)O.[NH2-].[NH2-].[Pt+2] [Carboplatin] + COc1cc2c(Oc3ccc(NC(=O)C4(C(=O)Nc5ccc(F)cc5)CC4)cc3F)ccnc2cc1OCCCN1CCOCC1 [Foretinib] (partner 0.25 µM)
Outline: (§1)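 A single step with final 0.05% Triton X-100, 1% formaldehyde and 1 ug/ml Hoechst fixed the cells and stained nuclei 5 days after treatment. Lung cancer cell lines in 1536-well plates had been treated by pin tool the day after seeding with one drug alone or a fixed anchor-drug dose plus five library-drug doses (not always all listed) in √10 steps, and nuclei were counted on 4× images. Relative viability is the ratio of nuclei in treated wells to nuclei in vehicle wells, taken as the median of duplicate plates.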

GSK126 + Pemetrexed = compound: CC[C@H](C)N1C=C(C2=C(C=C(C=C21)C3=CN=C(C=C3)N4CCNCC4)C(=O)NCC5=C(C=C(NC5=O)C)C)C [GSK126] + Nc1nc2[nH]cc(CCc3ccc(C(=O)N[C@@H](CCC(=O)O)C(=O)O)cc3)c2c(=O)[nH]1 [Pemetrexed] (partner 0.2 µM)
Outline: as §1

MLN4924 + Tozasertib = compound: NS(=O)(=O)OC[C@@H]1C[C@@H](n2ccc3c(N[C@H]4CCc5ccccc54)ncnc32)C[C@@H]1O [MLN4924] + Cc1cc(Nc2cc(N3CCN(C)CC3)nc(Sc3ccc(NC(=O)C4CC4)cc3)n2)n[nH]1 [Tozasertib] (partner 0.1 µM)
Outline: as §1

MLN4924 + Decitabine = compound: NS(=O)(=O)OC[C@@H]1C[C@@H](n2ccc3c(N[C@H]4CCc5ccccc54)ncnc32)C[C@@H]1O [MLN4924] + Nc1ncn([C@H]2C[C@H](O)[C@@H](CO)O2)c(=O)n1 [Decitabine] (partner 2 µM)
Outline: as §1

Cell Line	relative viability (Carboplatin + Foretinib; first compound 0.08 µM)	relative viability (Carboplatin + Foretinib; first compound 0.253 µM)	relative viability (Carboplatin + Foretinib; first compound 0.8 µM)	relative viability (Carboplatin + Foretinib; first compound 2.53 µM)	relative viability (Carboplatin + Foretinib; first compound 8 µM)	relative viability (GSK126 + Pemetrexed; first compound 0.08 µM)	relative viability (GSK126 + Pemetrexed; first compound 0.253 µM)	relative viability (GSK126 + Pemetrexed; first compound 0.8 µM)	relative viability (GSK126 + Pemetrexed; first compound 2.53 µM)	relative viability (GSK126 + Pemetrexed; first compound 8 µM)	relative viability (MLN4924 + Tozasertib; first compound 0.04 µM)	relative viability (MLN4924 + Tozasertib; first compound 0.1265 µM)	relative viability (MLN4924 + Tozasertib; first compound 0.4 µM)	relative viability (MLN4924 + Tozasertib; first compound 1.265 µM)	relative viability (MLN4924 + Tozasertib; first compound 4 µM)	relative viability (MLN4924 + Decitabine; first compound 0.04 µM)	relative viability (MLN4924 + Decitabine; first compound 0.1265 µM)	relative viability (MLN4924 + Decitabine; first compound 0.4 µM)	relative viability (MLN4924 + Decitabine; first compound 1.265 µM)	relative viability (MLN4924 + Decitabine; first compound 4 µM)
HCC-366	0.91	0.877	0.957	0.918	0.759	0.179	0.161	0.14	0.149	0.158	0.151	0.173	0.159	0.0404	0.0333	0.335	0.338	0.279	0.164	0.0343
NCI-H838	1.16	1.06	0.934	0.931	0.669	0.245	0.231	0.229	0.239	0.24	0.275	0.288	0.204	0.123	0.118	0.351	0.257	0.224	0.176	0.186
NCI-H2023	0.859	0.926	0.897	0.695	0.282	0.251	0.231	0.224	0.268	0.13	0.35	0.31	0.171	0.0719	0.0659	0.177	0.178	0.119	0.0603	0.062
HCC-78	0.616	0.555	0.54	0.526	0.545	0.889	0.866	0.888	0.891	0.871	0.564	0.458	0.453	0.172	0.141	0.685	0.775	0.485	0.27	0.244
ChaGo-K-1	0.872	0.993	0.835	0.745	0.579	0.256	0.269	0.265	0.256	0.254	0.22	0.174	0.221	0.184	0.158	0.409	0.276	0.297	0.2	0.184
EPLC-272H	0.785	0.852	0.727	0.611	0.602	0.327	0.327	0.26	0.366	0.322	0.249	0.159	0.0675	0.132	0.133	0.325	0.284	0.0744	0.108	0.106
LCLC-97TM1	1	0.956	0.892	0.868	0.765	0.19	0.193	0.171	0.179	0.194	0.222	0.158	0.172	0.121	0.112	0.188	0.156	0.133	0.0597	0.0565
LK-2	1.46	1.24	1.17	1.01	1.26	0.306	0.297	0.293	0.325	0.223	0.175	0.182	0.189	0.209	0.174	0.228	0.253	0.216	0.118	0.156
NCI-H322M	1.12	0.943	0.895	0.861	0.77	0.543	0.621	0.615	0.648	0.641	0.479	0.537	0.434	0.26	0.325	0.707	0.65	0.62	0.469	0.491
NCI-H2126	1.31	1.14	1.04	1.25	1.04	0.71	0.725	0.702	0.686	0.645	0.821	0.813	0.514	0.339	0.25	0.526	0.49	0.425	0.293	0.231
NCI-H596	0.828	1.01	0.707	0.59	0.431	0.496	0.464	0.441	0.45	0.472	0.819	0.987		0.514	0.528	1.09	1.1	0.933	0.97	0.727
LU99A	0.794	0.749	0.752	0.713	0.522	0.181	0.165	0.185	0.179	0.155	0.251	0.244	0.224	0.178	0.165	0.595	0.298	0.341	0.176	0.14
NCI-H1666	0.977	0.918	0.823	0.832	0.607	0.872	0.936	0.766	0.796	0.807	0.56	0.635	0.447	0.266	0.27	0.699	0.622	0.417	0.393	0.389
NCI-H520	0.905	0.815	0.795	0.831	0.575	0.781	0.792	0.743	0.705	0.733	0.461	0.513	0.425	0.204	0.25	0.447	0.338	0.249	0.148	0.207
